Test results: patent publication US4902716A (priority 1984, dated 1990)
Read-outs that look alike come from different tables or passages of the source.

How the values were obtained:
VSV = format: cell-based, vesicular stomatitis; details: Day 5, inhibition of plaque formation
cells = assay: Cytotoxicity (zone diameter in the antiviral assay); format: cell-based; details: Day 5
Description: The following assay method was utilized to illustrate the antiviral effectiveness of the compounds of formulae III and IV: […]
(1) Remove 75 cm^2 culture flasks from incubator (these were plated the previous week).
(3) Wash with 10 ml. PBSA or Puck's Saline.
(5) Wash a second time with 10 mL PBSA or Puck's Saline.
(7) Add 2 ml. trypsin/EDTA. Incubate until cells detach (10-20 min).
(8) Once detached, shake vigorously and immediately add 8 ml. medium and shake again.
(9) Count cells. (To 0.5 ml. cell suspension add 0.1 ml. trypan blue. Wait 5-10 minutes. Count 4 corner squares and middle square of 5×5 array in hemocytometer. Blue cells are dead. Total count per 10 ml. in culture flask=number of live cells×6×10^5).
(10) Maintain cell line by adding 3×10^6 cells to another 75 cm^2 culture flask. Bring to 30 ml. with fresh medium.
(11) For assay, add 1×10^6 cells to each well (6 wells per culture dish). Bring each well to 2 ml. with fresh medium.
(12) Incubate overnight at 37° C.
(2) Add 0.5 of medium containing 200 pfu HSV-I.
(3) Incubate 102 hr with a small amount of shaking.
(4) Add 2 ml. MC-4000 to each well.
(5) Place disks on surface and wash through (1 mg/disc, 0.5 mg/disc, 0.25 mg/disc, etc. for crude extracts).
(6) Incubate 48 hr. (making sure dishes remain level).
(1) Add 2 ml. neutral red medium.
(1) Read wells, e.g. 26 (++) where 26 indicates zone of cytotoxicity as the diameter in mm (12.5 mm to 36 mm) and (++) indicates the inhibition of plaque formation: complete inhibition (+++); a few plaques around the outside of well (++); definite inhibition (+); questionable inhibition (+/-); no inhibition (-); and no conclusion due to complete cytotoxicity.
The following antiviral inhibiting activity results were obtained utilizing the compounds of Formula III and IV at Day 5: […]

C=C1C(=O)C=CC(C)(C)[C@@]12C[C@@H](Br)[C@](C)(Cl)C[C@@H]2O [IV]
VSV activity (VSV; 100 micrograms): +
VSV activity (VSV; 200 micrograms): ++
VSV activity (VSV; 400 micrograms): ++
Cytotoxicity (cells; 100 micrograms): 0 mm
Cytotoxicity (cells; 200 micrograms): 0 mm
Cytotoxicity (cells; 400 micrograms): 12 mm
